Like-named read-outs stand apart in the source and are kept apart here.

The test system of assay [1] is wild type laboratory HIV strain (WT IIIB-2-001). Put plainly: Cellular anti-viral assay in HIV-infected MT4-LTR-EGFP cells (GFP reporter), wild type strain. It is filed as cell-based. The procedure: The compound having structural formula (III) was tested in a cellular assay using the MT4-LTR-EGFP cells for anti-viral activity.
(§1) The cellular assay was performed according to the following procedure.
(§2) HIV- or mock-infected MT4-LTR-EGFP cells were incubated for three days in the presence of various concentrations of the compound according to the invention. As reference compounds APV, IDV, RTV, NFV, TPV and LPV were used. Upon infection, the viral tat protein activates the GFP reporter. At the end of the incubation period, the GFP signal was measured. In the virus control samples (in the absence of any inhibitor) the maximal fluorescent signal was obtained. The inhibitory activity of the compounds were monitored on the virus-infected cells and were expressed as EC50. These values represent the amount of the compound required to protect 50% of the cells from virus infection.

Assay [2] has as its system clinically isolated HIV strain r13363 harboring several mutations. Put plainly: Cellular anti-viral assay in HIV-infected MT4-LTR-EGFP cells (GFP reporter), clinically isolated mutant strain. It is filed as cell-based. The procedure:
Because of the increasing emergence of drug resistant HIV strains, the present compound was also tested for its potency against a clinically isolated HIV strain harboring several mutations. These mutations are associated with resistance to protease inhibitors and result in viruses that show various degrees of phenotypic cross-resistance to the currently commercially available drugs such as for instance saquinavir, ritonavir, nelfinavir, indinavir and amprenavir. The viral strain tested R13363 contains mutations as indicated below.
as §1, §2

Setting [3] is: Human immunodeficiency virus 1, IIIB, read-out: HIV-AVE-MT4LTREGFP-IIIB pEC50 (converted).
The mark [4] stands for this setting: Human immunodeficiency virus 1, read-out: HIV-AVE-MT4LTREGFP-r13363 pEC50 (converted).

As for `CC(C)c1nc(CN(C)C(=O)N[C@H](C(=O)N[C@@H](Cc2ccccc2)C[C@H](O)[C@H](Cc2ccccc2)NC(=O)OCc2cncs2)C(C)C)cs1` [RTV, ritonavir], the results for the EC50 in assay [1] (setting [3]) and in assay [2] (setting [4]) were 63.1 nM and 10000 nM, respectively.
With `Cc1c(O)cccc1C(=O)N[C@@H](CSc1ccccc1)[C@H](O)CN1C[C@H]2CCCC[C@H]2C[C@H]1C(=O)NC(C)(C)C` [NFV, nelfinavir], the values for the EC50 in assay [1] (setting [3]) and in assay [2] (setting [4]) were 63.1 nM and 1580 nM, respectively.
Take `COC(=O)N[C@H](C(=O)NCCCC[C@@H](CO)N(CC(C)C)S(=O)(=O)c1ccc(CN)cc1)C(c1ccccc1)c1ccccc1` [formula (III), (S)—(S)-(1-{5-[(4-Aminomethyl-benzenesulfonyl)-isobutyl-amino]-6-hydroxy-hexylcarbamoyl}-2,2-diphenyl-ethyl)-carbamic acid methyl ester]: the EC50 in assay [1] (Human immunodeficiency virus 1, 72 h, wild type (IIIB), MT4-LTR-EGFP cells, three days incubation, read-out: pEC50—IIIB (converted)) was 31.6 nM; in assay [2] (Human immunodeficiency virus 1, 72 h, read-out: pEC50-r13363 (converted)) it was 31.6 nM. Besides, in assay [1] (MT4-LTR-EGFP cells, WT IIIB-2-001), the “anti-HIV activity against wild type laboratory HIV strain” value is listed as “potent anti-HIV activity”.
As to `CCC[C@@]1(CCc2ccccc2)CC(O)=C([C@H](CC)c2cccc(NS(=O)(=O)c3ccc(C(F)(F)F)cn3)c2)C(=O)O1` [TPV], in assay [1] (reference compounds, wild type (IIIB), MT4-LTR-EGFP cells), the “HIV-AVE-MT4LTREGFP-IIIB pEC50” value is 6.3 =. The “HIV-AVE-MT4LTREGFP-r13363 pEC50” value in assay [2] (reference compounds, clinically isolated HIV strain r13363, MT4-LTR-EGFP cells) is 6.3.
As for `Cc1cccc(C)c1OCC(=O)N[C@@H](Cc1ccccc1)[C@@H](O)C[C@H](Cc1ccccc1)NC(=O)[C@H](C(C)C)N1CCCNC1=O` [LPV, lopinavir], the EC50 is 12.6 nM in assay [1] (setting [3]) and 631 nM in assay [2] (setting [4]).
Take `CC(C)(C)NC(=O)[C@@H]1CN(Cc2cccnc2)CCN1C[C@@H](O)C[C@@H](Cc1ccccc1)C(=O)N[C@H]1c2ccccc2C[C@H]1O` [IDV, indinavir]: the EC50 is 39.8 nM in assay [1] (setting [3]) and 398 nM in assay [2] (setting [4]).
Turning to `CC(C)CN(C[C@@H](O)[C@H](Cc1ccccc1)NC(=O)O[C@H]1CCOC1)S(=O)(=O)c1ccc(N)cc1` [APV, amprenavir], the EC50 was 50.1 nM in assay [1] (setting [3]) and 10000 nM in assay [2] (setting [4]).

The values are drawn from patent US8318779B2, “Lysine related derivatives as HIV aspartyl protease inhibitors” (priority 2006, dated 2012).
